Experiments:
[1] = tested on: Jurkat cells undergoing apoptosis induced by anti-Fas Ab; experiment: Selective binding to apoptotic Jurkat cells; flow-cytometric (FACS) analysis; assay type: cell-based, human; settings: 20 minutes
Method: Cultured Jurkat cells (human adult T cell leukemia cells) were grown in suspension in RPMI medium (Beit-Haemek, Israel), supplemented with 10% of fetal calf serum (FCS), 4 mM of L-glutamine, 1 mM of sodium pyruvate, […] and antibiotics (100 units/ml penicillin; 100 μg/ml streptomycin and 12.5 units/ml of nystatin). Prior to induction of apoptosis, medium was replaced with HBS buffer (10 mM HEPES; 140 mM NaCl, 1 mM CaCl). Apoptosis was then triggered by treatment with anti-Fas Ab (0.1 μg/ml; 3 hrs). As a result, a marked percentage of the cells became apoptotic, and is regarded as newly formed early apoptotic cells. Non-treated cells served as control. Both control cells and apoptotic cells were then incubated for 20 minutes with 100 μM of NST705. […] The analysis shown in FIG. 1 describes the uptake of NST705 compound into the population of apoptotic cells in control and anti-fas treated cultures.
(§1) In the dot plot shown in FIG. 1A and FIG. 1B, the left lower quadrant represents the healthy, non-stained fraction of cells. The right lower quadrant represents the newly formed population of cells in the early stages of apoptosis. These cells still maintain membrane integrity and thus exclude PI. Cells binding both NST705 and PI, i.e., cells in the late stages of apoptosis are represented in the right upper quadrant.
(§2) Cultured Jurkat cells (human adult T cell leukemia cells) were grown in suspension in RPMI medium (Beit-Haemek, Israel), supplemented with 10% of fetal calf serum (FCS), 2 mM of L-glutamine, 1 mM of sodium pyruvate, […] and antibiotics (100 units/ml penicillin; 100 μg/ml streptomycin and 12.5 units/ml of nystatin). Prior to induction of apoptosis, medium was replaced with HBS buffer (10 mM HEPES; 140 mM NaCl, 1 mM CaCl). Apoptosis was then triggered by treatment with anti-Fas Ab (0.1 μg/ml; 3 hrs). As a result, a marked percentage of the cells became apoptotic. Non-treated cells served as control. Both control cells and apoptotic cells were then incubated for 20 minutes with 100 μM of NST703. Subsequently, cells were co-stained with propidium iodide (P). Binding of NST703 to the control and apoptotic cells was determined by flow cytometric (FACS) analysis using Becton-Dickinson cell sorter and CellQuest software (excitation was at 356 nm and emission was measured at 530 nm).
as §1, with “2A” for “1A”, “2B,” for “FIG. 1B,”, “NST703” for “NST705”
as §2, with “penicilin;” for “penicillin;”, “DC.” for “NST703.”, “(PI).” for “(P).”, “DC” for “NST703”
FIG. 4A and FIG. 4B are each a representative FACS dot plot, showing that activation of apoptosis leads to a marked uptake of DC by cells in the early stages of apoptosis (FIG. 4B), as compared to control cells (FIG. 4A). […]

[2] = tested on: apoptotic cells in B16-F10 murine melanoma tumor; experiment: Targeting in-vivo to apoptotic cells in tumor, murine melanoma; fluorescent microscopy; parameters: species or system mice; settings: 2 mg/mouse intravenously, 2 hours
Method: Tumors, and especially aggressive malignancies such as melanoma are characterized, in addition to the abnormal tissue proliferation, also by marked apoptosis of tumor cells. The performance of DC in selective targeting of these apoptotic cells within the tumor was therefore examined Mice (c57/black; 8 weeks old male mice) were injected subcutaneously bilaterally, in the flank, with murine melanoma-derived B16-F10 cells (ATCC CRL-6475; 10^5 cells/mice in a volume of 100 μl). Prior to injection, the cell line was maintained in culture in Dulbecco's modified Eagle's medium (DMEM), supplemented with 4 mM of L-glutamine; 100 units/ml of penicillin; 100 μg/ml of streptomycin; 12.5 units/ml of nystatin and 10% of fetal calf serum (FCS). Tumors were allowed to grow for 14 days, by which they reached a diameter of 5-7 mm.
(§3) The DC compound (2 mg/mouse in NaPpi buffer, pH. 7.40) was injected intravenously. Two hours later, the mice were scarified and the tumors, as well as other organs were taken, and immediately frozen in liquid nitrogen. Frozen sections were then prepared from each of the organs. Uptake of DC by the tumors or other organs was assessed by fluorescent microscopy.
The performance of NST730 in selective targeting to apoptotic cells within a tumor examined as described in Example 7. Mice (c57/black; 8 weeks old male mice) were injected subcutaneously bilaterally, in the flank, with murine melanoma-derived B16-F10 cells (ATCC CRL-6475; 10^5 cells/mice in a volume of 100 μl). Tumors were allowed to grow for 14 days, by which they reached a diameter of 5-7 mm.
as §3, with “The NST730 compound (2” for “The DC compound (2”, “Uptake of NST730 by the” for “Uptake of DC by the”, “tumors or by other organs” for “tumors or other organs”

[3] = tested on: neuronal cell death following MCA occlusion; experiment: Detection of neuronal cell death following middle cerebral artery (MCA) occlusion; assay type: in vivo; settings: Balb/C mice; 70 mg/kg intravenously 22 hours after MCA cauterization, 2 hours
Method: (§4) Cerebral ischemia was induced in Balb/C mice (10-12 weeks) by cauterization of the middle cerebral artery. Mice were anesthetized, and the temporal bone was exposed. Scraping off the bone up to a minimal hole allowed exposure of the artery subjecting it to cauterization. 22 hours later, NST732 (70 mg/kg) was injected intravenously. Two hours later (at 24 h from induction of the injury), mice were anesthetized and sacrificed, and brains were removed into liquid nitrogen for histopathological analysis of the frozen sections. Four μm thick sections were prepared for fluorescent microscopic analysis to follow the cells stained positively with NST732.
as §4, with “cauterization,” for “cauterization.”, “NST730” for “NST732”, “sections, as described in Example 11.” for “sections. Four μm thick sections were prepared for fluorescent microscopic analysis to follow the cells stained positively with NST732.”

apoptotic HeLa S3 cells = experiment: Selective binding to apoptotic HeLa cells in vitro; flow-cytometric analysis; assay type: cell-based; settings: culture aged 96 hours; FACS
Method: HeLa S3 cells (ATCC CCL-2.2) were grown in Dulbecco's modified Eagle's medium (DMEM), supplemented with 2 mM of L-glutamine; 100 units/ml of penicillin; 100 μg/ml of streptomycin; 12.5 units/ml of nystatin and 10% of fetal calf serum (FCS). Cells were seeded at a density of 5×10^6 cells/plate, on a […] culture plates, in a volume of 10 ml, and were allowed to age by incubating the culture for 96 hours without exchange of the growth medium. As a result, a marked percentage of the cells became apoptotic. Cells were harvested using a cell scraper, separated to single cells by passage through a syringe with a 18 G needle, and re-suspended at a density of 10^6 cells/ml in PBS buffer at pH=7.4. […] The analysis shown in FIG. 10 describes the uptake of NST601 compound into the population of apoptotic cells.

[4] = tested on: murine lymphoma cells undergoing cell death induced by irradiation; experiment: Detection of cell death induced by irradiation in vivo; murine lymphoma; settings: irradiated DBA mice (3 fractions of 6 Gray); 70 mg/kg intravenously, 2 hours
Method: DBA mice (5-6 weeks old males, Jackson laboratories) were injected subcutaneous with 10^6 lyS cells in 50 μl saline and were examined daily for tumor formation. At days 8, 9 and 10 mice were placed in a Perspex box and irradiated with 6MV x-rays apparatus (Linac) in fractions of 6 Gray each. Each mouse received a dose of about 1.0 centiGray per monitor unit. At day 13 (72 hours following the last irradiation) mice were injected intravenously with NST 732 (70 mg/kg, dissolved in Tris base containing 25% cremophore RH410, pH=9). After 2 hours, tumors were excised, frozen in liquid nitrogen and submitted for histopathological assessment.

[5] = tested on: chemotherapy-induced apoptotic cells of lymphoma tumors; experiment: In-vivo targeting to chemotherapy-induced apoptotic cells of lymphoma tumors; fluorescent microscopy; settings: DBA/2 mice, Taxol 20 mg/Kg; 1.4 mg/mouse injected 24 h later, 2 hours
Method: Lymphoma tumors were induced in 8 weeks old male DBA/2 mice (Harlan laboratories, UK) by subcutaneous injection of lymphoma cells. The cells, from a chemically-induced LY-R clone were obtained from ATCC(CRL-1722), and maintained by subsequent passages in mice. For induction of tumors, 5×10^5 cells in a volume of 100 μl were injected into the thigh region in mice. […] Twenty-four hours later, NST705 was injected systemically at a dose of 1.4 mg/mouse. Two hours later, mice were sacrificed and tumors were frozen in liquid nitrogen. Cryosections were then prepared and serial slides were subjected to either hematoxylin & eosin (H&E) staining or fluorescent microscopy evaluation (excitation wavelength of 360 nm, emission at 530 nm), using an Olympus fluorescent microscope (model IX70).

[6] = apoptotic cells (anti-Fas Ab 0.1 μg/ml, 3 hrs), 100 μM compound
[7] = non-treated control cells, 100 μM compound

## CCCCN(C)c1cccc2c(S(=O)(=O)NCC(=O)O)cccc12 [NST703, (5-Butylmethylamino-naphtalene-1-sulfonyl)-glycine]
[1]; [6]
  percent of identified early apoptotic events within the population (cells binding compound, excluding PI): 75.6%
[1]; [7]
  percent of identified early apoptotic events within the population (cells binding compound, excluding PI): 3.27%

## CN(C)c1cccc2c(S(=O)(=O)N[C@@H](CS)C(=O)O)cccc12 [DC, dansylcysteine]
[2]; small intestine tissue of the same animal
  binding to normal, viable tissue: lack of binding
[2]
  binding to tumor cells undergoing apoptosis: Extensive binding
  staining of viable tumor cells: remain unstained
[1]; [6]
  percent of identified early apoptotic events within the population (cells binding compound, excluding PI): 76%
[1]; [7]
  percent of identified early apoptotic events within the population (cells binding compound, excluding PI): 2.3%

## CN(C)c1cccc2c(S(=O)(=O)O)cccc12 [DA, dansylic acid]
[1]; apoptotic cells (anti-Fas Ab 0.1 μg/ml, 3 hrs), 250 μM compound
  percent of identified early apoptotic events within the population (cells binding compound, excluding PI): 77%
[1]; non-treated control cells, 250 μM compound
  percent of identified early apoptotic events within the population (cells binding compound, excluding PI): 4.2%

## CN(C)c1cccc2c(S(=O)(=O)NC(C)(CF)C(=O)O)cccc12 (stereo not drawn) [NST730]
[2]; colon, kidney, spleen and heart
  binding to other non-target tissues: lack of significant binding
[2]; muscle tissue of the same animal
  binding to normal, viable tissue: lack of binding
[2]
  binding to tumor cells undergoing apoptosis: Extensive binding
  staining of viable tumor cells: remain unstained
[3]
  binding to cells in the infarcted (damaged) area: extensive binding
  binding to cells outside the infarcted area: did not manifest significant binding

## CCCCN(C)c1cccc2c(S(=O)(=O)O)cccc12 [NST601, 5-Butylmethylamino-naphtalene-1-sulfonic acid]
Apoptotic HeLa S3 cells
  binding to apoptotic cells: selective binding
  staining of cells that do not undergo a process of cell death: remained non-stained

## CCC(CF)(NS(=O)(=O)c1cccc2c(N(C)C)cccc12)C(=O)O (stereo not drawn) [NST732]
[4]
  binding to tumor cells undergoing apoptosis: extensive binding
[3]
  binding to cells in the infarcted (damaged) area: extensive binding
  binding to cells outside the infarcted area: did not manifest significant binding

## CCCCN(CCCC)c1cccc2c(S(=O)(=O)N[C@@H](CC(=O)O)C(=O)O)cccc12 [NST705, (5-dibutylamino-naphthalene-1-sulfonyl)-L-aspartic acid]
[5]
  uptake by tumor cells undergoing cell death: marked uptake
  uptake by viable, non-apoptotic tumor cells: not observed
[1]; [6]
  percent of identified early apoptotic events within the population (cells binding compound, excluding PI): 70.8%
[1]; [7]
  percent of identified early apoptotic events within the population (cells binding compound, excluding PI): 3%
